Compound: Cn1cc(-c2cnn3c(N)c(Br)c([C@@H]4CCCNC4)nc23)cn1 + CC(C)C[C@H](NC(=O)[C@H](Cc1ccccc1)NC(=O)c1cnccn1)B(O)O [Bortezomib] (partner 0.002 µM)
Experiment: relative viability (nuclei count vs DMSO), 5 days (fraction); higher = more cells survive
How it was run: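 Lung cancer cell lines were seeded in 1536-well plates and dosed by pin tool the next day, with either a single drug or a fixed anchor-drug dose combined with five library-drug doses (not always all listed) spaced in √10 steps. Five days later, one step fixed the cells and stained their nuclei (final 0.05% Triton X-100, 1% formaldehyde, 1 ug/ml Hoechst), and nuclei were counted on 4× images. Relative viability is the nuclei count in treated wells divided by the count in vehicle wells, and each value is the median of duplicate plates.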

Cell Line | relative viability (first compound 0.05 µM) | relative viability (first compound 0.1581 µM) | relative viability (first compound 0.5 µM) | relative viability (first compound 1.581 µM) | relative viability (first compound 5 µM)
H3255 | 0.676 | 0.787 | 0.854 | 0.792 | 0.441
EPLC-272H | 0.853 | 0.891 | 0.933 | 0.769 | 0.82
PC-3 [JPC-3] | 0.818 | 0.834 | 0.76 | 0.755 | 0.907
EKVX | 1.06 | 1.16 | 0.987 | 0.836 | 1.07
ChaGo-K-1 | 0.909 | 1.01 | 0.826 | 0.717 | 0.682
NCI-H23 | 1.08 | 1.28 | 1.01 | 0.473 | 0.239
EMC-BAC-2 | 1.04 | 1.14 | 1.13 | 1.02 | 1.15
LOU-NH91 | 0.504 | 0.492 | 0.513 | 0.442 | 0.481
LU99A | 1.16 | 1.25 | 1.05 | 1.14 | 0.679
NCI-H460 | 0.993 | 1.74 | 0.792 | 0.401 | 0.529
201T | 1.04 | 1.09 | 1.1 | 1.07 | 1.17
NCI-H2405 | 0.961 | 1.06 | 1.01 | 0.95 | 0.691
NCI-H1703 | 0.231 | 0.261 | 0.19 | 0.132 | 0.138
NCI-H1755 | 1.04 | 1.03 | 0.952 | 0.879 | 0.711
NCI-H2087 | 0.893 | 0.876 | 0.872 | 0.622 | 0.911
NCI-H2228 | 1.1 | 1.1 | 0.943 | 0.705 | 0.521
NCI-H727 | 0.818 | 0.887 | 0.901 | 0.623 | 0.412
NCI-H650 | 0.717 | 0.748 | 0.69 | 0.773 | 0.603
NCI-H520 | 0.702 | 0.609 | 0.385 | 0.471 | 0.344
EBC-1 | 0.609 | 0.599 | 0.445 | 0.461 | 0.394
NCI-H661 | 0.805 | 0.781 | 0.698 | 0.731 | 0.587
NCI-H1299 | 0.942 | 1.04 | 0.994 | 1.03 | 0.985
NCI-H1993 | 1.09 | 1.16 | – | 0.931 | 0.846

Cell Line | relative viability (first compound 0.05 µM) | relative viability (first compound 0.1581 µM) | relative viability (first compound 0.5 µM) | relative viability (first compound 1.581 µM) | relative viability (first compound 5 µM)
NCI-H838 | 0.918 | 0.845 | 0.83 | 0.701 | 0.551
NCI-H1437 | 0.515 | 0.581 | 0.577 | 0.432 | 0.316
LCLC-103H | 1.03 | 1.2 | 1.18 | 0.841 | 1.16
NCI-H441 | 1.05 | 0.585 | 0.87 | – | 0.448
SK-LU-1 | 1.08 | – | 0.866 | 0.486 | 0.202
BEN | 0.688 | 0.824 | 0.729 | 0.774 | 0.553
LC-2-ad | 1.03 | 1.15 | 0.938 | 1.06 | 0.935
COR-L23 | 1.08 | 1.23 | 0.913 | 0.646 | 0.46
NCI-H1650 | 0.185 | 0.171 | 0.215 | 0.189 | 0.196
RERF-LC-KJ | 1.12 | 1.17 | 1.02 | 0.96 | 0.953
NCI-H1915 | 1.14 | 1.01 | 1.06 | 0.784 | 1.03
NCI-H596 | 1.06 | 0.964 | 0.9 | 0.804 | 1.02
IA-LM | 0.823 | 0.886 | 0.678 | 0.532 | 0.32
NCI-H2009 | 1.01 | 1.06 | 0.972 | 0.834 | 0.826
NCI-H2126 | 1.1 | 1.22 | 1.15 | 1.02 | 1.14
LXF-289 | 1.01 | 1.09 | 0.978 | 0.88 | 0.994
NCI-H1563 | 0.887 | 0.74 | 0.742 | 0.805 | 0.706
HCC-44 | 0.91 | 1.11 | 0.923 | 0.882 | 0.796
PC-14 | 0.936 | 0.971 | 0.83 | 0.549 | 0.355
HOP-62 | 0.847 | 1.02 | 1.28 | 0.708 | 0.294
NCI-H1666 | 1.09 | 0.804 | 0.786 | 0.802 | 0.721
NCI-H1355 | 1.23 | 1.33 | 1.17 | 1.15 | 1.24
HCC-827 | 0.919 | 1.03 | 1.18 | 1.1 | 1.01

Cell Line | relative viability (first compound 0.05 µM) | relative viability (first compound 0.1581 µM) | relative viability (first compound 0.5 µM) | relative viability (first compound 1.581 µM) | relative viability (first compound 5 µM)
HARA | 1.19 | 1.16 | 1.18 | 0.764 | 0.224
HCC-366 | 1.03 | 1.2 | 1.06 | 0.734 | 0.334
NCI-H322M | 1.2 | 1.32 | 1.22 | 1.21 | 1.26
NCI-H2347 | 0.839 | 1.01 | 0.747 | 0.727 | 0.869
NCI-H1975 | 0.444 | 0.403 | 0.296 | 0.32 | 0.31
UMC-11 | 0.72 | 0.961 | 0.558 | 0.476 | 0.437
ABC-1 | 0.364 | 0.284 | 0.298 | 0.331 | 0.287
A-427 | 1 | 0.937 | 1.2 | 0.961 | 0.743
LCLC-97TM1 | 0.318 | 0.546 | 0.626 | 0.333 | 0.204
HCC-15 | 1.16 | 1.18 | 1.03 | 0.788 | 1.11
NCI-H647 | 1.15 | 1.05 | 0.648 | 0.696 | 0.38
SW 1573 | 1.17 | 1.29 | 1.08 | 0.906 | 1.02
NCI-H1651 | 0.914 | 0.954 | 0.89 | 0.898 | 0.56
NCI-H1792 | 0.801 | 1.1 | 0.703 | 0.551 | 0.371
NCI-H2023 | 1.04 | 0.923 | 0.733 | 0.235 | 0.147
COR-L 105 | 0.757 | 0.721 | 0.768 | 0.613 | 0.611
NCI-H1734 | 1.02 | 1.13 | 0.798 | 0.865 | 0.746
NCI-H3122 | 1.12 | 1.02 | 1.04 | 1.11 | 1.05
CAL-12T | 0.728 | 0.899 | 0.775 | 0.718 | 0.315
HCC-78 | 0.482 | 0.567 | 0.556 | 0.511 | 0.39
NCI-H2085 | 1.12 | 1.13 | 1.08 | 0.813 | 0.909
